According to US20250179143A1, “SYSTEMS AND METHODS FOR CHAPERONE-MEDIATED LIGAND EXCHANGE ON MHC-I AND MHC-RELATED MOLECULES USING CHICKEN TAPBPR” (priority 2022, published 2025):
Non-standard residues stand in square brackets, D forms with d. No end group written: not given here.

How the values were obtained:
[1] = DSF thermal stability of pMHC-I molecules; format: physicochemical
[2] = molecular target: chTAPBPR/HLA-B*08:01 complex (Homo sapiens, UniProt P01889, A93T/A95T/D138N/E176V/E187T/K202T/Q94N/R180D/S35A/V36M/Y33D/Y91F); assay: EMSA of peptide-receptive complex with peptides; details: 10-fold molar excess peptide
HLA-A*02:01 = HLA-A*02:01 (Homo sapiens, UniProt P04439, D140Y/D185E/D98H/E176V/E277Q/G131W/G231S/I119V/I121R/I166T/I218V/L300P/L318F/N151K/N90K/P208A/P217A/Q86G/Q94H/R138H/R169H/T345S); assay: Fluorescence polarization (FP) peptide exchange
[3] = HLA-A*02:01 refolded with the named peptide
[4] = absence or presence of 10 nM hTAPBPR

| Substance | Tm [1, 3] | exchange of βF placeholder peptide on HLA-A*02:01 for fluorescent peptide (HLA-A*02:01; 5000 nM hTAPBPR) | further results |
| --- | --- | --- | --- |
| A*02:01/βFILGFVFTV: HLA-A*02:01 loaded with βFILGFVFTV (SEQ ID NO: 66) ([βPhe]ILGFVFTV-OH; not fully specified; printed as βFILGFVFTV; also: loaded in HLA-A*02:01 complex) | – | – | Tm (° C.) ([1]; HLA-A*02 subtypes loaded with KILGFVFβFV and HLA-A*02:01 loaded with βF scanning peptides): 53.9 °C |
| AIFQSSMTK [HIV] | – | – | pMHC-I bands upon incubation of the complex with the peptide [2]: not |
| ALWMRLLPL [T1D30] | – | – | pMHC-I bands upon incubation of the complex with the peptide [2]: discrete pMHC-I bands |
| FLRGRAYGL [EBV] | – | – | pMHC-I bands upon incubation of the complex with the peptide [2]: discrete pMHC-I bands |
| ILDTAGQEEY [RAS, reference compound] | – | – | Tm ([1]; HLA-A*01:01 refolded with the named peptide): 52 °C |
| KILGFVF(BF)V [BetaA02] | 53 °C | complete fluorescent peptide exchange | – |
| KILGFVFJV (photolabile J residue; VARIANT 8 J=3-amino-3-(2-nitrophenyl)-propionic acid) [PhotoA02, reference compound] | 52 °C | – | – |
| KILGFVβFTV [βF-P7] | 63 °C | allowed peptide loading | exchange of βF placeholder peptide on HLA-A*02:01 for fluorescent peptide (HLA-A*02:01; [4]): no peptide exchange |
| KILGFβFFTV [βF-P6] | 61 °C | allowed peptide loading | exchange of βF placeholder peptide on HLA-A*02:01 for fluorescent peptide (HLA-A*02:01; [4]): no peptide exchange |
| KILGβFVFTV [βF-P5] | 62 °C | allowed peptide loading | – |
| KILβFFVFTV [βF-P4] | – | complete fluorescent peptide exchange | – |
| KIβFGFVFTV [βF-P3] | 58 °C | complete fluorescent peptide exchange | – |
| MLYQHLLPL [T1D95] | – | – | pMHC-I bands upon incubation of the complex with the peptide [2]: discrete pMHC-I bands |
| βFILGFVFTV [βF-P1] | – | complete fluorescent peptide exchange | – |
